Drawing on US20230045421A1 (priority 2018, published 2023), this text covers EC50 for 30 molecules.

By pEC50 is commonly meant the EC50 on a negative log10 scale, so that one unit is a factor of ten. As usually defined, the EC50 is the concentration that produces a half-maximal response.

The subject of this experiment is HBV rcDNA. Put plainly: HepDE19 assay with bDNA quantitation of HBV rcDNA. The format is cell-based, hepatitis B virus. In outline: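 Compounds, top concentration 25 μM in 8-point duplicate series, were applied to Tet-free HepDE19 cultures for 7 days. Branched-DNA quantitation of HBV rcDNA against untreated wells gave EC50 and EC90 by 4-parameter fit. Viability (CC50) came from ATP luminescence on parallel plates incubated 4 days.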

Where [1] appears, read: HepDE19 assay, inhibition of formation of relaxed circular DNA (rcDNA), bDNA quantitation; read-out: DE-19bDNA EC50.
The mark [2] stands for this setting: read-out: DE-19bDNA EC50; HepDE19 assay, inhibition of formation of relaxed circular DNA (rcDNA), bDNA quantitation.
The mark [3] stands for this setting: read-out: DE-19bDNA EC50; HepDE19 assay, inhibition of formation of rcDNA.
[4] abbreviates: Hepatitis B virus, HepDE19, HepDE19 assay, inhibition of formation of rcDNA; read-out: DE-19bDNA EC50.
The mark [5] stands for this setting: HepDE19 assay, inhibition of formation of rcDNA; read-out: DE-19bDNA EC50.

pEC50: −log10 of the molar value. Read-outs that look alike come from different tables or passages of the source.

Consider `CC(c1c[nH]c(=O)c2ccccc12)N(Cc1cscn1)C(=O)Nc1ccc(F)c(Cl)c1` (single isomer, unassigned) [Compound 313, 3-(3-Chloro-4-fluorophenyl)-1-(1-(1-oxo-1,2-dihydroisoquinolin-4-yl)ethyl)-1-(thiazol-4-ylmethyl)urea], for which the pEC50 under setting [1] is 6.40.

For the molecule `CC(c1c[nH]c(=O)c2c(F)c(F)ccc12)N(C)C(=O)Nc1cc(Cl)cc(Cl)c1` (single isomer, unassigned) [Compound 448, 3-(3,5-Dichlorophenyl)-1-(1-(7,8-difluoro-1-oxo-1,2-dihydroisoquinolin-4-yl)ethyl)-1-methylurea], under setting [2], the pEC50 was 7.15.

As to `CC(c1cnc(OCc2nc[nH]n2)c2cc(F)c(F)cc12)N(C)C(=O)Nc1ccc(F)c(Cl)c1` (single isomer, unassigned) [Compound 362, 1-(1-(1-((1H-1,2,4-Triazol-3-yl)methoxy)-6,7-difluoroisoquinolin-4-yl)ethyl)-3-(3-chloro-4-fluorophenyl)-1-methylurea], the negative-log EC50 (pEC50) under setting [1] was 6.05.

Turning to `CC(c1c[nH]c(=O)c2ccccc12)N(CC[C@H](C)O)C(=O)Nc1ccc(F)c(Cl)c1` (single isomer, unassigned) [Compound 213], under setting [3], the pEC50 was 5.44.

`CC(c1c[nH]c(=O)c2nccnc12)N(C)C(=O)Nc1ccc(F)c(Cl)c1` (racemic) [Compound 148, 3-(3-chloro-4-fluorophenyl)-1-methyl-1-(1-(5-oxo-5,6-dihydropyrido[3,4-b]pyrazin-8-yl)ethyl)urea]: under setting [4], the pEC50 is 4.82.

As to `CCNc1ncc(C(C)N(C)C(=O)Nc2ccc(F)c(Cl)c2)c2ccccc12` (single isomer, unassigned) [Compound 241, 3-(3-Chloro-4-fluorophenyl)-1-(1-(1-(ethylamino)isoquinolin-4-yl)ethyl)-1-methylurea], the pEC50 under setting [5] was 6.96.

As for `CC(c1c[nH]c(=O)c2c(F)c(F)ccc12)N(C)C(=O)Nc1ccc(F)c(F)c1` (single isomer, unassigned) [Compound 434, 1-(1-(7,8-Difluoro-1-oxo-1,2-dihydroisoquinolin-4-yl)ethyl)-3-(3,4-difluorophenyl)-1-methylurea], the pEC50 under setting [1] was 5.49.

`CC(c1c[nH]c(=O)c2c(F)c(F)ccc12)N(CCCO)C(=O)Nc1ccc(F)c(Cl)c1` (single isomer, unassigned) [Compound 334, 3-(3-Chloro-4-fluorophenyl)-1-(1-(7,8-difluoro-1-oxo-1,2-dihydroisoquinolin-4-yl)ethyl)-1-(3-hydroxypropyl)urea]: the pEC50 under setting [1] is 5.70.

Turning to `CC(c1c[nH]c(=O)c2c(F)cc(F)cc12)N(C)C(=O)Nc1ccc(F)cc1` (single isomer, unassigned) [Compound 371, 1-(1-(6,8-Difluoro-1-oxo-1,2-dihydroisoquinolin-4-yl)ethyl)-3-(4-fluorophenyl)-1-methylurea], the pEC50 under setting [1] was 7.28.

With `CC(c1c[nH]c(=O)c2c(F)c(F)ccc12)N(C)C(=O)NCc1ccc(F)cc1` (single isomer, unassigned) [Compound 491, 1-(1-(7,8-Difluoro-1-oxo-1,2-dihydroisoquinolin-4-yl)ethyl)-3-(4-fluorobenzyl)-1-methylurea], under setting [1], the pEC50 is 4.68.

With `CC(c1c[nH]c(=O)c2ccccc12)N(Cc1cccnc1)C(=O)Nc1ccc(F)c(Cl)c1` (single isomer, unassigned) [Compound 307, 3-(3-Chloro-4-fluorophenyl)-1-(1-(1-oxo-1,2-dihydroisoquinolin-4-yl)ethyl)-1-(pyridin-3-ylmethyl) urea], the pEC50 under setting [1] was 4.70.

For `CC(c1c[nH]c(=O)c2ccccc12)N(Cc1nccs1)C(=O)Nc1ccc(F)c(Cl)c1` (single isomer, unassigned) [Compound 310, 3-(3-Chloro-4-fluorophenyl)-1-(1-(1-oxo-1,2-dihydroisoquinolin-4-yl)ethyl)-1-(thiazol-2-ylmethyl)urea], under setting [1], the pEC50 was 5.26.

Turning to `CC(c1c[nH]c(=O)c2cc(F)ccc12)N(C)C(=O)Nc1ccc(F)c(Cl)c1` (single isomer, unassigned) [Compound 264, 3-(3-Chloro-4-fluorophenyl)-1-(1-(7-fluoro-1-oxo-1,2-dihydroisoquinolin-4-yl)ethyl)-1-methylurea], the pEC50 under setting [5] was 7.72.

In the case of `CC(c1c[nH]c(=O)c2ccccc12)N(CCCC#N)C(=O)Nc1ccc(F)c(Cl)c1` (single isomer, unassigned) [Compound 114, 3-(3-Chloro-4-fluorophenyl)-1-(3-cyanopropyl)-1-(1-(1-oxo-1,2-dihydroisoquinolin-4-yl)ethyl)urea], the pEC50 under setting [5] is 5.72.

In the case of `O=C(Nc1ccc(F)c(Cl)c1)N(CCO)Cc1c[nH]c(=O)c2ccccc12` [Compound 27, 3-(3-Chloro-4-fluorophenyl)-1-(2-hydroxyethyl)-1-((1-oxo-1,2-dihydroisoquinolin-4-yl)methyl)urea], the negative logarithm of the EC50 (pEC50) under setting [4] was 6.00.

In the case of `COCCCN(C(=O)Nc1ccc(F)c(Cl)c1)C(C)c1c[nH]c(=O)c2ccccc12` (stereo not drawn) [Compound 79], the pEC50 under setting [5] was 5.68.

With `CC(C)CN(C(=O)Nc1ccc(F)c(Cl)c1)C(C)c1c[nH]c(=O)c2cnccc12` (single isomer, unassigned) [Compound 253, 3-(3-Chloro-4-fluorophenyl)-1-isobutyl-1-(1-(1-oxo-1,2-dihydro-2,7-naphthyridin-4-yl)ethyl)urea], the pEC50 under setting [5] is 5.85.

For the molecule `CC(c1c[nH]c(=O)c2cc(F)c(F)cc12)N(C)C(=O)NCc1ccc(F)c(Cl)c1` (single isomer, unassigned) [Compound 484, 3-(3-Chloro-4-fluorobenzyl)-1-(1-(6,7-difluoro-1-oxo-1,2-dihydroisoquinolin-4-yl)ethyl)-1-methylurea], under setting [1], the pEC50 was 4.85.

As to `CC(c1c[nH]c(=O)c2cc(F)ccc12)N(C)C(=O)Nc1ccc(F)c(Cl)c1` (racemic) [Compound 257, 3-(3-Chloro-4-fluorophenyl)-1-(1-(7-fluoro-1-oxo-1,2-dihydroisoquinolin-4-yl)ethyl)-1-methylurea], the pEC50 under setting [4] is 7.48.

For the molecule `CCN(C(=O)Nc1ccc(F)c(Cl)c1)C(C)c1c[nH]c(=O)c2cnccc12` (single isomer, unassigned) [Compound 152, 3-(3-Chloro-4-fluorophenyl)-1-ethyl-1-(1-(1-oxo-1,2-dihydro-2,7-naphthyridin-4-yl)ethyl)urea], under setting [5], the pEC50 is 6.82.

Consider `CC(c1c[nH]c(=O)c2c(F)c(F)ccc12)N(C)C(=O)Nc1cc(Cl)c(F)c(Cl)c1` (single isomer, unassigned) [Compound 451, 3-(3,5-Dichloro-4-fluorophenyl)-1-(1-(7,8-difluoro-1-oxo-1,2-dihydroisoquinolin-4-yl)ethyl)-1-methylurea], for which, under setting [1], the pEC50 is 5.49.

As to `COc1ccc2c(C(C)N(C)C(=O)Nc3ccc(F)c(Cl)c3)c[nH]c(=O)c2c1` (single isomer, unassigned) [Compound 178, 3-(3-Chloro-4-fluorophenyl)-1-(1-(7-methoxy-1-oxo-1,2-dihydroisoquinolin-4-yl)ethyl)-1-methylurea], the pEC50 under setting [5] was 6.77.

Take `CC(=O)N1CCC(CN(C(=O)Nc2ccc(F)c(Cl)c2)C(C)c2c[nH]c(=O)c3ccccc23)CC1` (single isomer, unassigned) [Compound 201, 1-((1-Acetylpiperidin-4-yl)methyl)-3-(3-chloro-4-fluorophenyl)-1-(1-(1-oxo-1,2-dihydroisoquinolin-4-yl)ethyl)urea]: under setting [5], the pEC50 was 6.66.

As for `COCCN(C(=O)Nc1ccc(F)c(Cl)c1)C(C)c1c[nH]c(=O)c2ccccc12` (single isomer, unassigned) [Compound 65, 3-(3-Chloro-4-fluorophenyl)-1-(2-methoxyethyl)-1-(1-(1-oxo-1,2-dihydroisoquinolin-4-yl)ethyl)urea], the pEC50 under setting [3] was 5.00.

For the molecule `CCN(C(=O)Nc1ccc(F)c(Cl)c1)C(c1cnc(OC)c2ccccc12)C(C)C` (single isomer, unassigned) [Compound 44, 3-(3-Chloro-4-fluorophenyl)-1-ethyl-1-(1-(1-methoxyisoquinolin-4-yl)-2-methylpropyl)urea], the pEC50 under setting [4] is 4.60.

Take `CCOc1ncc(CN(CC)C(=O)Nc2ccc(F)c(Cl)c2)c2ccccc12` [Compound 17, 3-(3-chloro-4-fluorophenyl)-1-((1-ethoxyisoquinolin-4-yl)methyl)-1-ethylurea]: the pEC50 under setting [4] was 5.80.

Take `C[C@H](c1c[nH]c(=O)c2ccccc12)N(C)C(=O)Nc1cccc(F)c1` [Compound 93, (R)-3-(3-Fluorophenyl)-1-methyl-1-(1-(1-oxo-1,2-dihydroisoquinolin-4-yl)ethyl)urea]: the EC50 (Hepatitis B virus, HepDE19, read-out: DE-19bDNA EC50 (μM), HepDE19 assay, inhibition of formation of rcDNA) came out at 0.52 µM.

As for `CC(c1c[nH]c(=O)c2c(F)c(F)ccc12)N(C)C(=O)Nc1cc(Cl)cc(Cl)c1` (single isomer, unassigned) [Compound 447, 3-(3,5-Dichlorophenyl)-1-(1-(7,8-difluoro-1-oxo-1,2-dihydroisoquinolin-4-yl)ethyl)-1-methylurea], under setting [2], the pEC50 is 5.19.

Take `CCOCCN(C(=O)Nc1ccc(F)c(Cl)c1)C(C)c1cnc(OC)c2ccccc12` (single isomer, unassigned) [Compound 126, 3-(3-Chloro-4-fluorophenyl)-1-(2-ethoxyethyl)-1-(1-(1-methoxyisoquinolin-4-yl)ethyl)urea]: the pEC50 under setting [5] is 6.20.

Take `CC(c1c[nH]c(=O)c2c(F)c(F)ccc12)N(C)C(=O)Nc1cccc(Cl)c1` (single isomer, unassigned) [Compound 460, 3-(3-Chlorophenyl)-1-(1-(7,8-difluoro-1-oxo-1,2-dihydroisoquinolin-4-yl)ethyl)-1-methylurea]: under setting [2], the pEC50 is 6.21.
